Patent US12472185B2, “Methods for killing antibiotic tolerant bacteria” (THE PENN STATE RESEARCH FOUNDATION, priority 2020, dated 2025)

What was measured:
[1] = tested on: natural E. coli persister cells; assay: Survival of naturally-occurring persister cells (ampicillin only); type: cell-based, Escherichia coli; conditions: NPIMA, compared with rifampicin-generated persisters
Procedure: FIG. 9. NPIMA kills naturally-occurring E. coli persister cells. Survival of E. coli with 5-iodoindole and solvent negative control (DMSO) also shown. Asterisk (*) indicates no viable cells were detected. The persister cells were harvested at stationary-phase of E. coli (turbidity of 6.0 at 600 nm) and non-persister cells were removed by treatment.
E. coli persister cells were prepared following our previous method (Kim, Yamasaki, et al., 2018; Kwan, Valenta, Benedik, & Wood, 2013). Exponentially-growing cells (turbidity of 0.8 at 600 nm) were treated with rifampicin (100 μg/ml for 30 min) to stop transcription, washed, and any remaining nonpersister cells were lysed by ampicillin in LB (100 μg/ml for 3 hr). Cells were harvested by centrifugation (17,000 g for 1 min) and washed with 1× phosphate-buffered saline buffer (PBS, 8 g NaCl, 0.2 g KCl, 1.15 g Na2HPO4, and 0.2 g KH2PO4 per 1,000 ml) twice to remove all possible carbon sources, then resuspended with 1×PBS. […]
For bacterial viability, cells were washed twice with 0.85% NaCl, resuspended in 1×PBS, and cell counts were determined via the drop assay (Donegan, Matyac, Seidler, & Porteous, 1991). […] Cell viability was determined via a cell counting kit (CCK-8 Kit, ab228554; Abcam), and cytotoxicity was determined via the lactate dehydrogenase (LDH) assay (LDH Assay Kit, MK401; Takara).

[2] = tested on: E. coli exponentially-growing cells; assay: Killing at one MIC in PBS, NPIMA compared with cisplatin; type: cell-based, Escherichia coli; conditions: 3 hr
Description: (§1) FIG. 7. NPIMA compared width cisplatin for killing Pseudomonas aeruginosa, Escherichia coli, and Staphylococcus aureus. Survival of exponentially-growing cells of P. aeruginosa PA14 (a), E. coli (b), and S. aureus (c) treated with one MIC of NPIMA (♦) and cisplatin (●) for 3 hr in PBS. DMSO (▴) and NaClO4 (*) were used as a negative controls. MIC, minimum inhibitory concentration; NPIMA, 5-nitro-3-phenyl-1H-indol-2-yl-methylamine hydrochloride.
(§2) For bacterial viability, cells were washed twice with 0.85% NaCl, resuspended in 1×PBS, and cell counts were determined via the drop assay (Donegan, Matyac, Seidler, & Porteous, 1991). For human cell viability, pre-cultured human cancer HT-29 cells were dispensed in 98 μl in 96-well plates with approximately 5,000 cells/well. NPIMA was added (2 μl) to produce concentrations of 5, 10, 100, and 200 μM. For controls, Triton X-100 (positive control) and DMSO (negative solvent control), were used, and the medium was used for background. Plates were incubated in a humidified incubator (37° C., 5% CO2) for 24 hr. Cell viability was determined via a cell counting kit (CCK-8 Kit, ab228554; Abcam), and cytotoxicity was determined via the lactate dehydrogenase (LDH) assay (LDH Assay Kit, MK401; Takara).

E. coli BW25113 = assay: LIVE/DEAD staining; type: cell-based, Escherichia coli; conditions: 100 μM, exponentially-growing cells
Procedure: FIG. 4. NPIMA lyses Escherichia coli, Pseudomonas aeruginosa, and Staphylococcus aureus. LIVE/DEAD staining of (a) E. coli BW25113 after 0.75 hr, (b) P. aeruginosa PA14 after 1 hr, and (c) S. aureus after 1 hr treatment with NPIMA at 100 μM. […] White arrows indicate lysed cells. Representative images are shown. Scale bar=[…]. NPIMA, 5-nitro-3-phenyl-1H-indol-2-ylmethylamine hydrochloride.
Cell viability after treating with NPIMA was determined using the using the LIVE/DEAD BacLight Bacterial Viability Kit (catalog number, L7012; Molecular Probes, Inc., Eugene, OR). The fluorescence signal was analyzed via a Zeiss Axioscope.A1 using excitation at 485 nm and emission at 530 nm for green fluorescence and using excitation at 485 nm and emission at 630 nm for red fluorescence.

E coli = assay: Resistance test by daily propagation at 0.25 MIC; type: cell-based, Escherichia coli; conditions: 7 days at 0.25 MIC (25 μM), then 1 MIC (100 μM) overnight
Procedure: After 7 days, the sequentially-propagated E. coli cells were contacted with LB with 1 MIC of NPIMA (100 μM) and incubated overnight to allow any putative resistant cells to grow and increase the turbidity.

[3] = tested on: P. aeruginosa + S. aureus; assay: In vitro Lubbock chronic wound pathogenic biofilm model; type: cell-based, Pseudomonas aeruginosa and Staphylococcus aureus; conditions: 0.5 mM, 6 hr
Procedure: FIG. 10. NPIMA kills S. aureus and P. aeruginosa in a wound model. Survival of total cells (P. aeruginosa+S. aureus) in the wound model after treatment with NPIMA for 6 h. The left bar is the solvent (DMSO) negative control.
Overnight cultures of S. aureus and P. aeruginosa PA14 were diluted in wound-like media (45% Bolton broth, 50% bovine plasma, and 5% laked horse blood; Sun, Dowd, Smith, Rhoads, & Wolcott, 2008) to a turbidity of 0.5 at 600 nm in 1 ml. Each culture (1%) was used to inoculate fresh 5 ml of wound-like media. The combined culture (200 μl/well) was placed into 96-well plates and incubated at 37° C. with shaking for 24 hr. The non-gel liquid was removed, then the gel was washed once with PBS. NPIMA (0.1 and 0.5 mM) and DMSO were then added (200 μl/well) to the plates, which were incubated for another 6 hr with shaking. By triturating, the gel with cells was removed and added to 0.8 ml of PBS, and the cell viability was measured by spreading 100 μl of diluted culture on LB plates.

[4] = tested on: P. aeruginosa PA14 exponentially-growing cells; assay: Killing at one MIC in PBS, NPIMA compared with cisplatin; type: cell-based, Pseudomonas aeruginosa; conditions: 3 hr
Description: as §1, §2

Cl.NCc1[nH]c2ccc([N+](=O)[O-])cc2c1-c1ccccc1 [NPIMA, [(5-nitro-3-phenyl-1H-indol-2-yl)methyl]amine hydrochloride]
killing of natural persisters (ampicillin treatment only) [1]: killed in an identical manner | effectiveness relative to cisplatin [2]: more effective than cisplatin | cell lysis seen by LIVE/DEAD staining (extracellular DNA) (E. coli BW25113): lysed | resistance after propagation (E coli): all of the E. coli cells were killed | reduction of total viable number of cells compared to DMSO [3]: 10 fold | effectiveness relative to cisplatin [4]: less effective
